Measured values from patent US9238802B2, “E. coli transformant, method for producing flavin-bound glucose dehydrogenase using the same, and mutant flavin-bound glucose dehydrogenases” (KIKKOMAN CORPORATION, priority 2010, dated 2016).

Assays:
[1] = tested on: flavin-bound GDHs of the invention; assay: Inhibitory effects of 1,10-phenanthroline, summary; type: biochemical, Mucor
Protocol: (§1) The inhibitory effects of 1,10-phenanthroline on the activities of these flavin-bound GDHs were examined by the following method. According to the enzyme activity assay of Example 1, the enzyme activities when 1,10-phenanthroline was added at final concentrations of 1, 5, 10, 25, and 50 mM were determined to calculate the inhibitory rates relative to 0% of the inhibitory rate when no 1,10-phenanthroline was added.

MjGDH = assay: Inhibitory effects of 1,10-phenanthroline on GDH activity; type: biochemical, Mucor javanicus NISL0111
Protocol: as §1

McGDH = assay: as above; type: biochemical, Mucor circinelloides f. circinelloides NISL0117
Protocol: as §1

MpGDH = assay: as above; type: biochemical, Mucor prainii NISL0103
Protocol: as §1

Compound: c1cnc2c(c1)ccc1cccnc12 [1,10-phenanthroline]
- inhibitory effects ([1]; 1,10-phenanthroline 1 mM): 2-4%
- inhibitory effects ([1]; 1,10-phenanthroline 5 mM): about 10%
- GDH inhibition rate (MjGDH; 1,10-phenanthroline 1 mM): 3.27%
- GDH inhibition rate (MjGDH; 1,10-phenanthroline 5 mM): 13.1%
- GDH inhibition rate (MjGDH; 1,10-phenanthroline 10 mM): 23.5%
- GDH inhibition rate (MjGDH; 1,10-phenanthroline 25 mM): 64.7%
- GDH inhibition rate (MjGDH; 1,10-phenanthroline 50 mM): 88.9%
- GDH inhibition rate (McGDH; 1,10-phenanthroline 1 mM): 1.95%
- GDH inhibition rate (McGDH; 1,10-phenanthroline 5 mM): 8.23%
- GDH inhibition rate (McGDH; 1,10-phenanthroline 10 mM): 12.8%
- GDH inhibition rate (McGDH; 1,10-phenanthroline 25 mM): 36.2%
- GDH inhibition rate (McGDH; 1,10-phenanthroline 50 mM): 68.5%
- GDH inhibition rate (MpGDH; 1,10-phenanthroline 1 mM): 3.72%
- GDH inhibition rate (MpGDH; 1,10-phenanthroline 5 mM): 10.1%
- GDH inhibition rate (MpGDH; 1,10-phenanthroline 10 mM): 23.9%
- GDH inhibition rate (MpGDH; 1,10-phenanthroline 25 mM): 44.1%
- GDH inhibition rate (MpGDH; 1,10-phenanthroline 50 mM): 68.6%
